This is an account of results in patent publication US12398107B2, “Fungicidal nitroanilino substituted pyrazoles” (FMC Corporation, priority 2018, dated 2025).

Holding throughout (assay type): in vivo
One assay has as its system Alternaria solani. The assay is described as follows: Test F: tomato early blight, preventive spray on tomato seedlings. Conditions: 50 ppm, 100 = 100% disease control, 0 = no control. From the text: (§1) General protocol for preparing test suspensions for Tests A-F: the test compounds were first dissolved in acetone in an amount equal to 3% of the final volume and then suspended at the desired concentration (in ppm) in acetone and purified water (50/50 mix by volume) containing 250 ppm of the surfactant PEG400 (polyhydric alcohol esters). The resulting test suspensions were then used in Tests A-F. The test suspension was sprayed to the point of run-off on tomato seedlings. The following day the seedlings were inoculated with a spore suspension of Alternaria solani (the causal agent of tomato early blight) and incubated in a saturated atmosphere at 27° C. for 48 h, and then moved to a growth chamber at 20° C. for 3 days, after which time visual disease ratings were made. A rating of 100 indicates 100% disease control and a rating of 0 indicates no disease control (relative to the controls). A dash (-) indicates the compound was not tested.

Assay [1] concerns Puccinia recondita f. sp. tritici. The assay is described as follows: Test B: wheat leaf rust, preventive spray on wheat seedlings. Conditions: 50 ppm, 100 = 100% disease control, 0 = no control relative to controls. From the text:
General protocol for preparing test suspensions for Tests A-F: the test compounds were first dissolved in acetone in an amount equal to 3% of the final volume and then suspended at the desired concentration (in ppm) in acetone and purified water (50/50 mix by volume) containing 250 ppm of the surfactant PEG400 (polyhydric alcohol esters). The resulting test suspensions were then used in Tests A-F. The test solution was sprayed to the point of run-off on wheat seedlings. The following day the seedlings were inoculated with a spore suspension of Puccinia recondita f. sp. tritici (the causal agent of wheat leaf rust) and incubated in a saturated atmosphere at 20° C. for 24 h, and then moved to a growth chamber at 20° C. for 7 days, after which time disease ratings were made. A rating of 100 indicates 100% disease control and a rating of 0 indicates no disease control (relative to the controls). A dash (-) indicates the compound was not tested.

Another assay relates to Phakopsora pachyrhizi. The assay is described as follows: Test D: Asian soybean rust, preventive spray on soybean seedlings. Conditions: 50 ppm, 100 = 100% disease control, 0 = no control. The source says: General protocol for preparing test suspensions for Tests A-F: the test compounds were first dissolved in acetone in an amount equal to 3% of the final volume and then suspended at the desired concentration (in ppm) in acetone and purified water (50/50 mix by volume) containing 250 ppm of the surfactant PEG400 (polyhydric alcohol esters). The resulting test suspensions were then used in Tests A-F.
The test solution was sprayed to the point of run-off on soybean seedlings. The following day the seedlings were inoculated with a spore suspension of Phakopsora pachyrhizi (the causal agent of Asian soybean rust) and incubated in a saturated atmosphere at 22° C. for 24 h and then moved to a growth chamber at 22° C. for 8 days, after which time visual disease ratings were made.
A rating of 100 indicates 100% disease control and a rating of 0 indicates no disease control (relative to the controls). A dash (-) indicates the compound was not tested.

The next assay concerns Septoria tritici. The assay can be described thus: Test A: wheat leaf blotch, preventive spray on wheat seedlings. Conditions: 50 ppm, 100 = 100% disease control, 0 = no control relative to controls. From the text:
General protocol for preparing test suspensions for Tests A-F: the test compounds were first dissolved in acetone in an amount equal to 3% of the final volume and then suspended at the desired concentration (in ppm) in acetone and purified water (50/50 mix by volume) containing 250 ppm of the surfactant PEG400 (polyhydric alcohol esters). The resulting test suspensions were then used in Tests A-F. The test solution was sprayed to the point of run-off on wheat seedlings. The following day the seedlings were inoculated with a spore suspension of Septoria tritici (the causal agent of wheat leaf blotch) and incubated in a saturated atmosphere at 24° C. for 48 h, and then moved to a growth chamber at 20° C. for 17 days, after which time disease ratings were made. A rating of 100 indicates 100% disease control and a rating of 0 indicates no disease control (relative to the controls). A dash (-) indicates the compound was not tested.

For assay [2], the system named is Blumeria graminis f. sp. tritici. The assay is described as follows: Test C: wheat powdery mildew, preventive spray on wheat seedlings. Conditions: 50 ppm, rated after 8 days, 100 = 100% disease control, 0 = no control. The source says:
General protocol for preparing test suspensions for Tests A-F: the test compounds were first dissolved in acetone in an amount equal to 3% of the final volume and then suspended at the desired concentration (in ppm) in acetone and purified water (50/50 mix by volume) containing 250 ppm of the surfactant PEG400 (polyhydric alcohol esters). The resulting test suspensions were then used in Tests A-F. The test suspension was sprayed to the point of run-off on wheat seedlings. The following day the seedlings were inoculated with a spore dust of Blumeria graminis f. sp. tritici, (also known as Erysiphe graminis f. sp. tritici, the causal agent of wheat powdery mildew) and incubated in a growth chamber at 20° C. for 8 days, after which time visual disease ratings were made. A rating of 100 indicates 100% disease control and a rating of 0 indicates no disease control (relative to the controls). A dash (-) indicates the compound was not tested.

Another assay has as its system Botrytis cinerea. The assay can be described thus: Test E: tomato Botrytis, preventive spray on tomato seedlings. Conditions: 50 ppm, 100 = 100% disease control, 0 = no control.
Description: as §1, with “Botrytis cinerea” for “Alternaria solani”, “Botrytis)” for “early blight)”, “20°” for “27°”, “24°” for “20°”

The structures appear in SMILES notation.

In the case of `Cc1nn(C)c(Nc2c(F)cccc2[N+](=O)[O-])c1-c1ccc(Cl)cc1Cl` [Compound 69], the “Test F disease control rating (tomato early blight)” value (from here on “Test F disease control rating”) with Alternaria solani is recorded as 99%. For the same molecule, the “Test B disease control rating (wheat leaf rust)” value (“Test B disease control rating” for short) in assay [1] is recorded as 100%. Also, the “Test D disease control rating (Asian soybean rust)” value (“Test D disease control rating” for short) in the assay with Phakopsora pachyrhizi turned out to be 77%. The “Test A disease control rating (wheat leaf blotch)” value (from here on “Test A disease control rating”) with Septoria tritici was determined as 100%. Also, the “Test C disease control rating (wheat powdery mildew)” value (shortened to “Test C disease control rating”) in assay [2] was 97%. Also, the “Test E disease control rating (tomato Botrytis)” value (“Test E disease control rating” for short) in the assay with Botrytis cinerea came out at 100%.
Take `Cc1nn(C)c(Nc2ccc(F)cc2[N+](=O)[O-])c1-c1ccc(F)cc1Br` [Compound 20]: the “Test F disease control rating” value in the assay with Alternaria solani stood at 26%. Moreover, the “Test B disease control rating” value in assay [1] came out at 89%. For the same molecule, the “Test D disease control rating” value with Phakopsora pachyrhizi is 0%. Besides, in the assay on Septoria tritici, the “Test A disease control rating” value is given as 100%. Besides, the “Test C disease control rating” value in assay [2] amounted to 92%. Further, the “Test E disease control rating” value with Botrytis cinerea is reported as 99%.
As to `CCc1nn(C)c(Nc2c(F)cc(F)cc2[N+](=O)[O-])c1-c1ccc(F)cc1Cl` [Compound 95], in the assay with Alternaria solani, the “Test F disease control rating” value is 99%. The “Test B disease control rating” value in assay [1] is listed as 100%. Also, the “Test D disease control rating” value with Phakopsora pachyrhizi was determined as 84%. Also, the “Test A disease control rating” value in the assay on Septoria tritici came out at 100%. In assay [2], the “Test C disease control rating” value is 100%. Further, in the assay with Botrytis cinerea, the “Test E disease control rating” value worked out at 99%.
In the case of `Cc1nn(C)c(Nc2c(F)cc(F)cc2[N+](=O)[O-])c1-c1ccc(F)cc1Cl` [Compound 109], the “Test F disease control rating” value with Alternaria solani was determined as 99%. The “Test B disease control rating” value in assay [1] came to 100%. Besides, the “Test D disease control rating” value in the assay with Phakopsora pachyrhizi is reported as 93%. Moreover, the “Test A disease control rating” value with Septoria tritici was 100%. Also, the “Test C disease control rating” value in assay [2] amounted to 100%. For the same molecule, the “Test E disease control rating” value in the assay with Botrytis cinerea turned out to be 100%.
In the case of `C#CCOc1ccc(Nc2c(-c3ccc(F)cc3Cl)c(C)nn2C)c([N+](=O)[O-])c1` [Compound 5], the “Test F disease control rating” value in the assay with Alternaria solani is on record as 0%. Besides, the “Test B disease control rating” value in assay [1] was found to be 86%. Further, the “Test D disease control rating” value in the assay with Phakopsora pachyrhizi stood at 19%. In addition, in the assay on Septoria tritici, the “Test A disease control rating” value amounted to 97%. The “Test C disease control rating” value in assay [2] is 76%. Besides, the “Test E disease control rating” value in the assay on Botrytis cinerea came to 95%.
Regarding `COc1ccc(Nc2c(-c3ccc(C#N)cc3Cl)c(C)nn2C)c([N+](=O)[O-])c1` [Compound 124], the “Test F disease control rating” value in the assay on Alternaria solani is given as 99%. Moreover, the “Test B disease control rating” value in assay [1] was 100%. In addition, the “Test D disease control rating” value in the assay on Phakopsora pachyrhizi is listed as 25%. Further, the “Test A disease control rating” value with Septoria tritici worked out at 100%. For the same molecule, in assay [2], the “Test C disease control rating” value was found to be 99%. For the same molecule, in the assay on Botrytis cinerea, the “Test E disease control rating” value worked out at 100%.
For `Cc1nn(C)c(Nc2c(F)cc(I)cc2[N+](=O)[O-])c1-c1ccc(F)cc1Cl` [Compound 47], the “Test F disease control rating” value in the assay with Alternaria solani is reported as 96%. In addition, the “Test B disease control rating” value in assay [1] came out at 97%. In the assay on Phakopsora pachyrhizi, the “Test D disease control rating” value worked out at 92%. Also, the “Test A disease control rating” value with Septoria tritici is on record as 100%. The “Test C disease control rating” value in assay [2] is recorded as 89%. Further, in the assay with Botrytis cinerea, the “Test E disease control rating” value was 95%.
In the case of `COc1ccc(Nc2c(-c3ccc(F)cc3Cl)c(C)nn2C)c([N+](=O)[O-])c1` [Compound 119], in the assay with Alternaria solani, the “Test F disease control rating” value amounted to 99%. The “Test B disease control rating” value in assay [1] was determined as 100%. In addition, the “Test D disease control rating” value in the assay on Phakopsora pachyrhizi is reported as 92%. In the assay with Septoria tritici, the “Test A disease control rating” value stood at 100%. Further, the “Test C disease control rating” value in assay [2] turned out to be 99%. The “Test E disease control rating” value in the assay with Botrytis cinerea is given as 100%.
For `Cc1nn(C)c(Nc2c(Cl)cccc2[N+](=O)[O-])c1-c1ccc(C#N)cc1Cl` [Compound 123], the “Test F disease control rating” value in the assay on Alternaria solani worked out at 66%. Besides, the “Test B disease control rating” value in assay [1] came to 97%. For the same molecule, the “Test D disease control rating” value in the assay with Phakopsora pachyrhizi stood at 0%. Further, the “Test A disease control rating” value in the assay on Septoria tritici came to 100%. For the same molecule, the “Test C disease control rating” value in assay [2] came out at 81%. Moreover, the “Test E disease control rating” value in the assay with Botrytis cinerea is 100%.
Consider `COc1cc(F)c(-c2c(C)nn(C)c2Nc2ccc(F)cc2[N+](=O)[O-])c(F)c1` [Compound 83], for which the “Test F disease control rating” value in the assay on Alternaria solani was found to be 99%. Also, the “Test B disease control rating” value in assay [1] is listed as 91%. Moreover, the “Test D disease control rating” value in the assay on Phakopsora pachyrhizi turned out to be 0%. Besides, in the assay on Septoria tritici, the “Test A disease control rating” value worked out at 99%. In addition, the “Test C disease control rating” value in assay [2] was found to be 99%. Besides, in the assay with Botrytis cinerea, the “Test E disease control rating” value is 98%.
As to `Cc1cccc([N+](=O)[O-])c1Nc1c(-c2ccc(F)cc2Cl)c(C)nn1C` [Compound 117], in the assay with Alternaria solani, the “Test F disease control rating” value came to 76%. Also, in assay [1], the “Test B disease control rating” value stood at 100%. In the assay with Phakopsora pachyrhizi, the “Test D disease control rating” value worked out at 0%. Also, the “Test A disease control rating” value in the assay on Septoria tritici came to 99%. Also, the “Test C disease control rating” value in assay [2] is reported as 95%. The “Test E disease control rating” value with Botrytis cinerea came to 99%.
For `COc1ccc(-c2c(C)nn(C)c2Nc2ccc(Cl)cc2[N+](=O)[O-])c(Cl)c1` [Compound 74], the “Test F disease control rating” value with Alternaria solani turned out to be 85%. Further, the “Test B disease control rating” value in assay [1] came out at 86%. Besides, the “Test D disease control rating” value in the assay on Phakopsora pachyrhizi is listed as 74%. Moreover, the “Test A disease control rating” value in the assay with Septoria tritici was found to be 99%. Besides, in assay [2], the “Test C disease control rating” value is 81%. In the assay on Botrytis cinerea, the “Test E disease control rating” value is on record as 99%.
`COc1cc(F)c(-c2c(C)nn(C)c2Nc2c(Cl)cccc2[N+](=O)[O-])c(F)c1` [Compound 160]: the “Test F disease control rating” value in the assay with Alternaria solani turned out to be 99%. In addition, the “Test B disease control rating” value in assay [1] was found to be 100%. Also, the “Test D disease control rating” value in the assay on Phakopsora pachyrhizi is 86%. Besides, the “Test A disease control rating” value with Septoria tritici is 98%. Also, the “Test C disease control rating” value in assay [2] was found to be 96%. For the same molecule, the “Test E disease control rating” value with Botrytis cinerea turned out to be 100%.
On to `COc1cc(F)c(-c2c(C)nn(C)c2Nc2c(Cl)cc(Cl)cc2[N+](=O)[O-])c(F)c1` [Compound 82], for which, in the assay with Alternaria solani, the “Test F disease control rating” value stood at 97%. In addition, the “Test B disease control rating” value in assay [1] was 100%. In addition, the “Test D disease control rating” value with Phakopsora pachyrhizi was determined as 59%. Also, the “Test A disease control rating” value with Septoria tritici is reported as 100%. The “Test C disease control rating” value in assay [2] worked out at 58%. Moreover, the “Test E disease control rating” value with Botrytis cinerea is on record as 96%.
